In patent US6358921B1, “Antimicrobial peptide compositions and method” (priority 1996, dated 2002):
Like-named read-outs stand apart in the source and are kept apart here.

Legend:
[1] = test system: P. aeruginosa H187; assay type: cell-based, Pseudomonas aeruginosa
How it was run: (§1)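 Peptides are tested by liquid microdilution against strains such as Salmonella C610, E. faecalis ATCC 29212 and sensitive P. aeruginosa H188, with 5×10^5 CFU/mL in LB, overnight at 37 °C. Where a therapeutic index is given, it divides the 4 h complete-hemolysis concentration by the MIC.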

[2] = test system: P. aeruginosa H188; assay type: cell-based, Pseudomonas aeruginosa
How it was run: (§2)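 Antimicrobial activity is measured by a liquid-broth assay in LB at 37 °C overnight, starting from 5×10^5 CFU/mL. Values are minimal inhibitory concentrations, i.e. the lowest concentration that stops growth.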

[3] = test system: E. coli UB1005; assay type: cell-based, Escherichia coli; settings: UB1005
How it was run: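 Liquid-broth rather than agar method. Organisms: clinical isolates (C. albicans, S. epidermidis), environmental C. xerosis, wild-type E. coli UB1005.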

[4] = test system: E. coli DC2; assay type: cell-based, Escherichia coli; settings: DC2
How it was run: as §1

[5] = test system: S. typhinurium C587; assay type: cell-based, Salmonella typhinurium
How it was run: as §2

[6] = test system: S. typhinurium C610; assay type: cell-based, Salmonella typhinurium
How it was run: as §2

[7] = test system: S. aureus K147; assay type: cell-based, Staphylococcus aureus
How it was run: (§3)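 Liquid-broth microdilution: overnight LB cultures at 37 °C, diluted to a final inoculum of 5×10^5 CFU/mL with serial peptide dilutions, incubated overnight at 37 °C. MIC (μg/ml) is the lowest concentration that inhibited growth. Therapeutic index is the concentration giving complete hemolysis at 4 h divided by the MIC.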

[8] = test system: S. aureus SAP0017; assay type: cell-based, Staphylococcus aureus
How it was run: as §3

[9] = test system: S. epidermidis; assay type: cell-based, Staphylococcus epidermidis
How it was run: as §2

[10] = test system: B. subtilis; assay type: cell-based, Bacillus subtilis
How it was run: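 Liquid-broth microdilution: overnight LB cultures diluted and added to serial peptide dilutions at final 5×10^5 CFU/mL, incubated overnight at 37 °C. MIC is the lowest concentration inhibiting growth; C. albicans a clinical isolate, S. epidermidis clinical, C. xerosis environmental.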

[11] = test system: E. faecalis; assay type: cell-based, Enterococcus faecalis
How it was run: as §2

[12] = test system: C. xeroses; assay type: cell-based, Corynebacterium xerosis
How it was run: as §2

[13] = test system: C. Albicans; assay type: cell-based, Candida albicans
How it was run: as §2

[14] = test system: human erythrocytes; assay: Hemolytic activity; assay type: cell-based
Procedure: Serial dilutions of the peptides in saline were prepared in round bottom microtitre plates using 100 μL volumes. Red blood cells were diluted with saline to 1/25 packed volume of cells and 50 μL added to each well. Plates were incubated with rocking at 37° C., and the concentration required for complete lysis determined visually after 4 h.

[15] = Displacement of dansyl-polymyxin from LPS; assay type: binding, P. aeruginosa; settings: read-out: LPS binding affinity: peptide concentration to displace 50% of dansyl-polymyxin B from LPS; Tables 1, 4, 7
How it was run: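 Peptides titrated into 3 μg/mL P. aeruginosa LPS with 2.5 μM dansyl-polymyxin (~90% site saturation) in 5 mM sodium HEPES, pH 7.0; fluorescence decrease recorded. I50 (50% probe displacement) taken from the x-intercept of a double-reciprocal plot of percent inhibition versus inhibitor concentration.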

## CC(C)C[C@@H]1NC(=O)[C@H](CCCCN)NC(=O)[C@H](C(C)C)NC(=O)[C@H](CCCCN)NC(=O)[C@@H]2CCCN2C(=O)[C@@H](Cc2ccc(O)cc2)NC(=O)[C@H](CCCCN)NC(=O)[C@H](CC(C)C)NC(=O)[C@H](CCCCN)NC(=O)[C@H](C(C)C)NC(=O)[C@@H](CCCCN)NC(=O)[C@@H]2CCCN2C(=O)[C@@H](Cc2ccc(O)cc2)NC(=O)[C@H](CCCCN)NC1=O [GS14invK1]
[1]; H187
  Minimum Inhibitory Concentration (activity): 12.5 µg/mL
[2]; H188
  Minimum Inhibitory Concentration (activity): 9 µg/mL
[3]
  Minimum Inhibitory Concentration (activity): 25 µg/mL
[4]
  Minimum Inhibitory Concentration (activity): 25 µg/mL
[5]
  Minimum Inhibitory Concentration (activity): 150 µg/mL
[6]
  Minimum Inhibitory Concentration (activity): 62 µg/mL
[7]
  Minimum Inhibitory Concentration (activity): >200 µg/mL
[8]
  Minimum Inhibitory Concentration (activity): >200 µg/mL
[9]
  Minimum Inhibitory Concentration (activity): 100 µg/mL
[10]
  Minimum Inhibitory Concentration (activity): >200 µg/mL
[11]
  Minimum Inhibitory Concentration (activity): >200 µg/mL
[12]
  Minimum Inhibitory Concentration (activity): 6.2 µg/mL
[13]
  Minimum Inhibitory Concentration (activity): 200 µg/mL
[14]
  Hemolytic activity: peptide concentration for 100% lysis of human erythrocytes: >800 µg/mL
[15]
  IC50: 43 µM

## CC(C)C[C@@H]1NC(=O)[C@H](CCCCN)NC(=O)[C@H](C(C)C)NC(=O)[C@H](CCCCN)NC(=O)[C@@H]2CCCN2C(=O)[C@@H](Cc2ccc(O)cc2)NC(=O)[C@H](CCCCN)NC(=O)[C@H](CC(C)C)NC(=O)[C@H](CCCCN)NC(=O)[C@H](C(C)C)NC(=O)[C@H](CCCCN)NC(=O)[C@@H]2CCCN2C(=O)[C@@H](Cc2ccc(O)cc2)NC(=O)[C@H](CCCCN)NC1=O [GS14inv]
[1]; H187
  Minimum Inhibitory Concentration (activity): 12.5 µg/mL
[2]; H188
  Minimum Inhibitory Concentration (activity): 6.2 µg/mL
[3]
  Minimum Inhibitory Concentration (activity): 12.5 µg/mL
[4]
  Minimum Inhibitory Concentration (activity): 0.8 µg/mL
[5]
  Minimum Inhibitory Concentration (activity): 50 µg/mL
[6]
  Minimum Inhibitory Concentration (activity): 3.1 µg/mL
[7]
  Minimum Inhibitory Concentration (activity): >200 µg/mL
[8]
  Minimum Inhibitory Concentration (activity): 200 µg/mL
[9]
  Minimum Inhibitory Concentration (activity): 25 µg/mL
[10]
  Minimum Inhibitory Concentration (activity): >200 µg/mL
[11]
  Minimum Inhibitory Concentration (activity): 200 µg/mL
[12]
  Minimum Inhibitory Concentration (activity): 0.8 µg/mL
[13]
  Minimum Inhibitory Concentration (activity): 25 µg/mL
[14]
  Hemolytic activity: peptide concentration for 100% lysis of human erythrocytes: >800 µg/mL
[15]
  IC50: 14 µM

## CC(C)C[C@@H]1NC(=O)[C@H](CCCCN)NC(=O)[C@H](C(C)C)NC(=O)[C@@H]2CCCN2C(=O)[C@@H](Cc2ccc(O)cc2)NC(=O)[C@H](CCCCN)NC(=O)[C@H](CC(C)C)NC(=O)[C@H](C(C)C)NC(=O)[C@H](CCCCN)NC(=O)[C@H](CC(C)C)NC(=O)[C@@H]2CCCN2C(=O)[C@@H](Cc2ccc(O)cc2)NC(=O)[C@H](CCCCN)NC(=O)[C@H](C(C)C)NC1=O [GS14na]
[1]; P. aeruginosa H187
  Minimum Inhibitory Concentration (activity): 75 µg/mL
[2]; P. aeruginosa H188
  Minimum Inhibitory Concentration (activity): 18 µg/mL
[3]
  Minimum Inhibitory Concentration (activity): 37 µg/mL
[4]
  Minimum Inhibitory Concentration (activity): 62 µg/mL
[5]
  Minimum Inhibitory Concentration (activity): 100 µg/mL
[6]
  Minimum Inhibitory Concentration (activity): 12.5 µg/mL
[7]
  Minimum Inhibitory Concentration (activity): >200 µg/mL
[8]
  Minimum Inhibitory Concentration (activity): 200 µg/mL
[9]; S. epidermidis
  Minimum Inhibitory Concentration (activity): 50 µg/mL
[10]; B. subtilis
  Minimum Inhibitory Concentration (activity): >200 µg/mL
[11]; E. faecalis
  Minimum Inhibitory Concentration (activity): 200 µg/mL
[12]; C. xeroses
  Minimum Inhibitory Concentration (activity): 1.5 µg/mL
[13]; C. Albicans
  Minimum Inhibitory Concentration (activity): 100 µg/mL
[14]
  Hemolytic activity: peptide concentration for 100% lysis of human erythrocytes: >800 µg/mL
